Results taken from patent US12428455B2, “Dominant negative CEBPB and CEBPD proteins and methods of use for decreasing viability of neoplastic cells” (The Trustees of Columbia University in the City of New York, priority 2018, dated 2025).
No end group written: not given here.

Key:
Type in all cases: cell-based
[1] = system: MDA-MB-231 breast cancer cells; experiment: Cell number after peptide treatment, MDA-MB-231; details: 6 days, 0 μM to 50 μM; stock without BSA
Procedure: Replicate cultures were exposed to the peptides the for 6 days at the indicated concentrations. Stock solutions of the peptides were prepared in buffer without added bovine serum albumin (BSA).
Replicate cultures of HCT116, MDA-MB 231, MCF7, and T98G cells were exposed to a 50/50 by concentration mixture of CP-DN-CEBPB and CP-DN-CEBPD for 6 days at doses of 0 μM to 50 μM. Stock solutions of the peptides were prepared in buffer without added bovine serum albumin (BSA).
Replicate cultures of T98G, HCT116, MDA-MB 231, and MCF7 cells were exposed to CP-DN-CEBPB, CP-DN-CEBPD, or a CP-DN-CEBPD in which heptad repeat leucine residues were mutated to glycine residues for 6 days at doses of 0 μM to 50 μM. Stock solutions of the peptides were prepared in buffer without added bovine serum albumin (BSA).

[2] = system: 293T transformed embryonic kidney cells; experiment: Cell number after peptide treatment, 293T; details: 6 days, 0 μM to 50 μM; stock without BSA
Procedure: Replicate cultures of MDA-MB-468 breast cancer cells, A549 lung cancer cells and 293T transformed embryonic kidney cells were exposed to CP-DN-CEBPB or CP-DN-CEBPD, for 6 days at doses of 0 μM to 50 μM. […] Stock solutions of the peptides were prepared in buffer without added bovine serum albumin (BSA).

[3] = system: HIEC-6 non-cancer human intestinal epithelial cells; experiment: Cell number after peptide treatment, HIEC-6; details: 6 days, 0 μM to 50 μM; stock without BSA
Procedure: Replicate cultures of HIEC-6 non-cancer human intestinal epithelial cells, MCF10A non-cancer human breast epithelial cells, or normal human astrocytes were exposed to CP-DN-CEBPB or CP-DN-CEBPD, for 6 days at doses of 0 μM to 50 μM. […] Stock solutions of the peptides were prepared in buffer without added bovine serum albumin (BSA).

MDA-MB-231 cells [4] = experiment: Apoptotic nuclei, propidium iodide flow cytometry, MDA-MB-231; details: 20 μM, 3 days, vs untreated cells
Procedure: MDA-MB-231, MCF7, HCT116 and T98G cancer cell lines were treated for 3 days with 20 μM CP-dn-CEBPB and CP-dn-CEBPD peptides from stock solutions prepared without additives. Cultures were stained with propidium iodide and assessed for proportion of cells with apoptotic nuclei by flow cytometry.

MDA-MB-231 cells [5] = experiment: Combination with paclitaxel, cell number, MDA-MB-231; details: 1 nM or 5 nM paclitaxel and 3, 10 or 20 μM peptide, 6 days
Procedure: Replicate cultures of T98G, MDA-MB 231, and MCF7 cells were treated with 1 nM or 5 nM paclitaxel and 3 μM, 10 μM, or 20 μM CP-dn-CEBPB and CP-dn-CEBPD peptides, maintained for 6 days, and then assessed for cell number. The bar graphs of FIGS. 26A (T98G, CP-dn-CEBPB), 26C (T98G, CP-dn-CEBPBD, 26E (MDA-MB-231, CP-dn-CEBPBD), 26G (MDA-MB-231, CP-dn-CEBPD), 26I (MCF7, CP-dn-CEBPBB), and 26K (MCF7, CP-dn-CEBPBD) show relative cell numbers for each condition as compared to untreated controls. The line graphs of FIGS. 26B (T98G, CP-dn-CEBPB), 26D (T98G, CP-dn-CEBPBD), 26F (MDA-MB-231, CP-dn-CEBPB), 26H (MDA-MB-231, CP-dn-CEBPD), 26J (MCF7, CP-dn-CEBPB), and 26L (MCF7 CP-dn-CEBPBD) show the response as normalized in each case so that 100 represents the relative number of surviving cells that received the indicated level of paclitaxel, but no peptide treatment. Calculated combination indices (CI) were as follows: MCF7: CI=0.41±0.04 for CP-dn-CEBPB; 0.44±0.04 for CP-dn-CEBPD; MDA-MB-231: 0.74±0.03 for CP-dn-CEBPB; 0.74±0.05 for CP-dn-CEBPD; T98G: CI=0.84±0.06 for CP-dn-CEBPB and 0.75±0.07 for CP-dn-CEBPD.

T98G cells = experiment: Combination with chloroquine, cell number, T98G; details: 5 μM or 10 μM chloroquine and 3 μM or 10 μM peptide, 6 days
Procedure: Replicate cultures of T98G, MDA-MB 231, and HCT116 cells were treated with 5 μM or 10 μM chloroquine and 3 μM or 10 μM CP-dn-CEBPB and CP-dn-CEBPD peptides, maintained for 6 days, and then assessed for cell number. The bar graphs of FIGS. 29A (T98G, CP-dn-CEBPB), 29C (T98G, CP-dn-CEBPBD, 29E (MDA-MB-231, CP-dn-CEBPBD), 29G (MDA-MB-231, CP-dn-CEBPD), 29I (HCT116, CP-dn-CEBPBB), and 26K (HCT116, CP-dn-CEBPBD) show relative cell numbers for each condition as compared to untreated controls. The line graphs of FIGS. 26B (T98G, CP-dn-CEBPB), 26D (T98G, CP-dn-CEBPBD), 26F (MDA-MB-231, CP-dn-CEBPB), 26H (MDA-MB-231, CP-dn-CEBPD), 26J (HCT116, CP-dn-CEBPB), and 26L (HCT116 CP-dn-CEBPBD) show the response as normalized in each case so that 100 represents the relative number of surviving cells that received the indicated level of chloroquine, but no peptide treatment. The results ranged from near-additive (HCT116 cells, CI=0.92±0.08 for CP-dn-CEBPB and 0.87±0.07 for CP-dn-CEBPD) to apparent synergy (T98G, CI=0.56±0.06 for CP-dn-CEBPB and 0.75±0.03 for CP-dn-CEBPD; MDA-MB-261, CI=0.59±0.11 for CP-dn-CEBPB and 0.47±0.05 for CP-dn-CEBPD).

IL6 = experiment: qPCR for IL6 mRNA; details: 20 μM, 3 days; T98G, MDA-MB-231, MCF7, A375 and HCT116 cells
Procedure: T98G, MDA-MB-231, MCF7, A375, and HCT116 cells were treated with or without 20 μM CP-dn-CEBPB or CP-dn-CEBPD for 3 days and then assessed by qPCR for relative levels of IL6 (FIG. 32A, T98G; FIG. 32B, MDA-MB-231; FIG. 32C, MCF7; FIG. 32D, A375; FIG. 32E, HCT116) and IL8 mRNA (FIG. 32F, T98G; FIG. 32G, MDA-MB-231; FIG. 32H, MCF7; FIG. 32I, A375; FIG. 32J, HCT116).

Sequence	growth and survival / numbers of MDA-MB-231 cells [1]	number of 293T cells [2]	number of HIEC-6 cells [3]	proportion of cells with apoptotic nuclei (MDA-MB-231 cells [4])	combination index (CI) with paclitaxel (MDA-MB-231 cells [5])	CI with chloroquine (T98G cells)	relative levels of IL6 mRNA (IL6)
RQIKIWFQNRRMKWKKLETQHKVLELTAENERLQKKVEQLSRELSTLRNLFKQL [CP-DN-CEBPB]	decrease in growth and survival	dose-dependent decrease in the number	did not cause a dose-dependent decrease	increased apoptotic cell death	0.74±0.03	0.56±0.06	suppress expression
RQIKIWFQNRRMKWKKLVELSAENEKLHQRVEQLTRDLAGLRQFFK [CP-DN-CEBPD]	decrease in growth and survival	dose-dependent decrease in the number	did not cause a dose-dependent decrease	increased apoptotic cell death	0.74±0.05	0.75±0.03	suppress expression
